# From patent US6218393A, “Anthranilic acid derivatives as multi drug resistance modulators” (priority 1997, dated 2001)
# Legend:
# AR 1.0 cells [1] = experiment: Drug accumulation assay: daunorubicin accumulation in AR 1.0 cells; assay type: cell-based; settings: Mus musculus, 100% = accumulation with verapamil 100 μM, 1 hr, 37° C.
# Outline: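 AR 1.0 is the MDR-resistant subline of EMT6 mouse mammary carcinoma, grown in RPMI 1640 with 10% foetal calf serum and 2 mM glutamine at 37 °C, 5% CO2. Cells were seeded 48 h before the daunorubicin accumulation assay.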
# AR 1.0 cells [2] = experiment: Potentiation of doxorubicin toxicity: proliferation assay (sulphorhodamine B); assay type: cell-based, mouse
# Source text: (a) Selected compounds of formula (I) were examined for their ability to potentiate the toxicity of doxorubicin in AR 1.0 cells.
# AR 1.0 cells [3] = experiment: Potentiation index with doxorubicin titration; assay type: cell-based, mouse; settings: for Potentiation Index at RMA concentration 10 nM: Table C1, RMA 10 nM; for Potentiation Index at RMA concentration 30 nM: Table C1, RMA 30 nM; for Potentiation Index at RMA concentration 50 nM: Table C1, RMA 50 nM; for Potentiation Index at RMA concentration 100 nM: Table C1, RMA 100 nM
# Method: The EMT6 mouse mammary carcinoma cell line and the MDR resistant subline AR 1.0 were cultured in RPMI 1640 medium containing 10% foetal calf serum and 2 mM glutamine at 37° C. in 5% CO2. Cells were passaged between 1 in 200 and 1 in 2000 in the case of the parental cell line and between 1 in 20 and 1 in 200 in the case of the MDR resistant subline, after trypsinisation (0.25% trypsin, 0.2 gl^-1, EDTA). […]
# (b) Cells were cultured for four days with a titration of doxorubicin (0.263 nM-17.24 μM) in the presence of a fixed concentration of each compound. Proliferation was quantified as described by Skehen et al, loc cit. The IC50 (concentration required to reduce proliferation to 50% of the untreated controls) for doxorubicin alone and with each compound were derived and used to calculate the potentiation index (PI): [formula]
# [4] = Mus musculus, 96 h, compound alone, four day proliferation, read-out: Compound Toxicity (IC50)
# [5] = with fixed doxorubicin 0.34 μm, four days, 5760 min, read-out: Toxicity with Cytotoxic Agent (IC50)
SMILES,IC50 (AR 1.0 cells [1]),IC50 (AR 1.0 cells [2]; [4]),IC50 (AR 1.0 cells [2]; [5]),Potentiation Index at RMA concentration 10 nM (AR 1.0 cells [3]),Potentiation Index at RMA concentration 30 nM (AR 1.0 cells [3]),Potentiation Index at RMA concentration 50 nM (AR 1.0 cells [3]),Potentiation Index at RMA concentration 100 nM (AR 1.0 cells [3]),toxicity of doxorubicin alone to AR 1.0 cells (AR 1.0 cells [2]; fixed concentration 0.34 μm)
COc1cc2c(cc1OC)CN(CCNC(=O)c1ccccc1NC(=O)c1ccc(N(C)C)cc1)CC2 [compound 9256],1700 nM,40000 nM,300 nM,,,,,
"CCN(CC)c1ccc(C(=O)Nc2ccccc2C(=O)NCCN2CCc3cc(OC)c(OC)cc3C2)cc1 [compound 9310, 2-(4-Diethylamino-benzoylamino)-N-[2-(6,7-dimethoxy-3,4-dihydro-1H-isoquinolin-2-yl)-ethyl]-benzamide]",1200 nM,22000 nM,240 nM,,,,,
"COc1cc2c(cc1OC)CN(CCNC(=O)c1ccccc1NC(=O)c1ccc(C(C)(C)C)cc1)CC2 [compound 9334, 2-(4-tert-Butyl-benzoylamino)-N-[2-(6,7-dimethoxy-3,4-dihydro-1H-isoquinolin-2-yl)-ethyl]-benzamide]",1300 nM,8000 nM,50 nM,,,,,
"CCCCOc1ccc(CN(C)CCc2ccc(NC(=O)c3ccccc3NC(=O)c3cnc4ccccc4c3)cc2)cc1OC [compound 9642, Quinoline-3-carboxylic acid [2-(4-{2-[(4-butoxy-3-methoxy-benzyl)-methyl-amino]-ethyl}-phenylcarbamoyl)-phenyl]-amide]",341 nM,,,1.0,1.2,2.5,14,
"CN(CCc1ccc(NC(=O)c2ccccc2NC(=O)c2cnc3ccccc3c2)cc1)Cc1ccc(F)c(F)c1 [compound 9643, Quinoline-3-carboxylic acid [2-(4-{2-[(3,4-difluoro-benzyl)-methyl-amino]-ethyl}-phenylcarbamoyl)-phenyl]-amide]",425 nM,,,1.0,1.5,2.4,6.7,
"CN(CCc1ccc(NC(=O)c2ccccc2NC(=O)c2cnc3ccccc3c2)cc1)Cc1ccc2c(c1)OCCO2 [compound 9645, Quinoline-3-carboxylic acid [2-(4-{2-[(2,3-dihydro-benzo [1,4]dioxin-6-ylmethyl)-methyl-amino]-ethyl}-phenylcarbamoyl)-phenyl]-amide]",179 nM,,,1.0,1.3,2.1,7.2,
"COc1cc(CN(C)CCc2ccc(NC(=O)c3ccccc3NC(=O)c3cnc4ccccc4c3)cc2)ccc1OC(C)C [compound 9646, Quinoline-3-carboxylic acid [2-(4-{2-[(4-isopropoxy-3-methoxy-benzyl)-methyl-amino]-ethyl}-phenylcarbamoyl)-phenyl]-amide]",295 nM,,,1.0,1.1,1.3,4.8,
"COc1ccc(CN(C)CCc2ccc(NC(=O)c3ccccc3NC(=O)c3cnc4ccccc4c3)cc2)cc1O [compound 9647, Quinoline-3-carboxylic acid [2-(4-{2-[(3-hydroxy-4-methoxy-benzyl)-methyl-amino]-ethyl}-phenylcarbamoyl)-phenyl]-amide]",33 nM,,,,,1,6,
"COc1cc2c(cc1OC)CN(CC(O)COc1ccc(NC(=O)c3ccccc3NC(=O)c3cnc4ccccc4c3)cc1)CC2 (stereo not shown) [compound 9648, Quinoline-3-carboxylic acid (2-{4-[3-(6,7-dimethoxy-3,4-dihydro-1H-isoquinolin-2-yl)-2-hydroxy-propoxy]-phenylcarbamoyl}-phenyl)-amide]",38 nM,,,16,34,,,
"COc1cc(CN(C)CCc2ccc(NC(=O)c3ccccc3NC(=O)c3cnc4ccccc4c3)cc2)ccc1O [compound 9649, Quinoline-3-carboxylic acid [2-(4-{2-[(4-hydroxy-3-methoxy-benzyl)-methyl-amino]-ethyl}phenylcarbamoyl)-phenyl]-amide]",188 nM,,,53,46,60,66,
"COc1cc2c(cc1OC)CN(CCc1ccc(NC(=O)c3ccccc3NC(=O)c3cnc4ccccc4c3)c(C)c1)CC2 [compound 9650, Quinoline-3-carboxylic acid (2-{4-[2-(6,7-dimethoxy-3,4-dihydro-1H-isoquinolin-2-yl)-ethyl]-2-methyl-phenylcarbamoyl}-phenyl)-amide]",61 nM,,,3,3,14,33,
"COc1cc(CCN2CCc3cc(OC)c(OC)cc3C2)ccc1NC(=O)c1ccccc1NC(=O)c1cnc2ccccc2c1 [compound 9651, Quinoline-3-carboxylic acid (2-{4-[2-(6,7-dimethoxy-3,4-dihydro-1H-isoquinolin-2-yl)-ethyl]-2-methoxy-phenylcarbamoyl}-phenyl)-amide]",71 nM,,,,,1.1,2.2,
"COc1ccc(CN(C)Cc2ccc(NC(=O)c3ccccc3NC(=O)c3cnc4ccccc4c3)cc2)cc1OC(C)C [compound 9652, Quinoline-3-carboxylic acid [2-(4-{[(3-isopropoxy-4-methoxy-benzyl)-methyl-amino]-methyl}-phenylcarbamoyl)-phenyl]-amide]",64 nM,,,,1.2,1.8,7.6,
"CN(CCc1ccc(NC(=O)c2ccccc2NC(=O)c2cnc3ccccc3c2)cc1)Cc1ccc(N(C)C)cc1 [compound 9655, Quinoline-3-carboxylic acid [2-(4-{2-[(4-dimethylamino-benzyl)-methyl-amino]-ethyl}-phenylcarbamoyl)-phenyl]-amide]",557 nM,,,1.8,13,37,65,
"COc1cc2c(cc1OC)CN(CCCc1cccc(NC(=O)c3ccccc3NC(=O)c3cnc4ccccc4c3)c1)CC2 [compound 9660, Quinoline-3-carboxylic acid (2-{3-[3-(6,7-dimethoxy-31 4-dihydro-1H-isoquinolin-2-yi)-propyl]-phenyicarbamoyi}-phenyi)-atnide]",6420 nM,,,,1.1,1.2,1.4,
"COc1ccc(CN(C)Cc2ccc(NC(=O)c3ccccc3NC(=O)c3cccnc3)cc2)cc1OC(C)C [compound 9661, N-[2-(4-{[(3-Isopropoxy-4-methoxy-benzyl)-methyl-amino]-methyl}-phenylcarbamoyl)-phenyl]-nicotinamide]",362 nM,,,1.2,38,71,195,
"COc1ccc(CN(C)CCc2ccc(NC(=O)c3ccc(Cl)cc3NC(=O)c3cnc4ccccc4c3)cc2)cc1OC [compound 9663, Quinoline-3-carboxylic acid [5-chloro-2-(4-{2-[(3-4-dimethoxy-benzyl)-methyl-amino]-ethyl}-phenylcarbamoyl)-phenyl]-amide]",175 nM,,,50,80,74,82,
"O=C(Nc1ccccc1C(=O)Nc1ccc(CCN2CCc3cc4c(cc3C2)OCO4)cc1)c1cnc2ccccc2c1 [compound 9664, Quinoline-3-carboxylic acid (2-{4-[2-(7,8-dihydro-5H-[1,3]dioxolo[4,5-g]isoquinolin-6-yl)-ethyl]-phenylcarbamoyl}-phenyl)-amide]",1680 nM,,,1,1.9,37,116,
"CCOc1cc2c(cc1OCC)CN(CCc1ccc(NC(=O)c3ccccc3NC(=O)c3cnc4ccccc4c3)cc1)CC2 [compound 9665, Quinoline-3-carboxylic acid (2-{4-[2-(6,7-diethoxy-3,4-dihydro-1H-isoquinolin-2-yl)-ethyl]-phenylcarbamoyl}-phenyl)-amide]",389 nM,,,1.4,7,28,50,
"COc1cccc2c1C(=O)c1c(O)c3c(c(O)c1C2=O)C[C@@](O)(C(=O)CO)C[C@@H]3O[C@H]1C[C@H](N)[C@H](O)[C@H](C)O1 [doxorubicin, reference compound]",,,,,,,,non-toxic
